Data: patent publication US11685726B2, “Pharmaceutical compositions of 6-(2-(2H-tetrazol-5-yl)ethyl)-6-fluorodecahydroisoquinoline-3-carboxylic acid and ester derivatives thereof” (Sea Pharmaceuticals LLC, priority 2020, dated 2023)

Assays:
[1] = tested on: Maximal Electroshock Seizure (MES) model in rats; test: Maximal Electroshock Seizure (MES) model in rats; type: in vivo
Excerpt: Adult male Carworth Farms (CF-1) mice (25-35 g) or young male Sprague-Dawley (SD) rats (100-150 g) were obtained from Charles River Laboratories Inc (Wilmington Mass. USA). CF1 mice were typically used for the 6 Hz psychomotor seizure model (6 Hz model described in the section below) but could also be used for the Maximal electroshock seizure (MES) model if performed in mice (Maximal electroshock seizure model described in the section below). SD rats were typically used for MES model but could also be used for 6 Hz psychomotor model if performed in rats. Animals were allowed free access to food and water, except during testing periods. After delivery from supplier lab to the in vivo pharmacology testing lab, animals were allowed sufficient time to acclimate to housing conditions prior to testing. Animals were housed in plastic cages in rooms with controlled humidity, ventilation, and lighting (12 hours lights on and 12 hours darkness). The animals were housed and fed in a manner consistent with the recommendations in the “Guide for Care and Use of Laboratory Animals” (National Research Council), and in accordance with guidelines set by an Institutional Animal Care and Use Committee (IACUC). Animal experiments were conducted in a manner consistent with Animal Research: Reporting of In Vivo Experiments (ARRIVE) guidelines (UK) and were approved by an IACUC. […]

[2] = LCMS bioanalysis of compound levels in rat samples (plasma, CSF, brain) after administration; type: in vivo; conditions: lower limit of quantification 1 ng/ml
Excerpt: Measurement of Compound 1 or Compound 2 from rat samples (plasma, cerebral spinal fluid “CSF” or brain homogenate) was done by high resolution using a sensitive LCMS method.
Extracts of biological samples (either organic solvent precipitated or organic solvent extracted i. plasma or ii. CSF or iii. homogenates of whole brains from Compound 1 or Compound 2 treated rats) were subjected to LCMS and were compared to freshly prepared standard curves on exactly the same LCMS instrument. The standard curves were prepared of Compound 1 or Compound 2 at known concentrations dispensed (spiked) into rat plasma (supplied by Bioivt formerly Bioreclamation, Cat. No. RAT00PLK2Y2N, Bioivt, Hicksville N.Y. USA) as Sprague Dawley male rat plasma prepared by collection of blood into potassium-EDTA “K2-EDTA” tubes, centrifuged and stored at −80 C until usage). […] The lower limit of quantification of Compound 1 or Compound 2 based on the conditions used was 1 ng/ml and the standard curve was linear to 5,000 ng/ml. […]
Acute administration of test compound 1 or test compound 2 by routes described (either PO, SC or IV) was done to rats and samples collected at the timepoints described for subsequent extraction, dissolution and quantitative LCMS bioanalysis. […]

Row | Structure (SMILES) | MES Test Results (# rats protected from seizure/# rats tested) ([1]; 6 mg/kg S.C., 0.5 hours before corneal stimulus, SPHA formulation) | tolerability of treatment in MES study ([1]; rats, single acute systemic administration) | compound levels in vivo by LCMS [2]
1 | O=C(O)[C@@H]1C[C@H]2C[C@@](F)(CCc3nnn[nH]3)CC[C@H]2CN1 [Compound 1, (3S,4aS,6S,8aR)-6-fluoro-6-[2-(1H-1,2,3,4-tetrazol-5-yl)ethyl]-decahydroisoquinoline-3-carboxylic acid] | 6/6 | well tolerated | 
2 | O=C(O)[C@@H]1C[C@H]2CC(F)(CCc3nnn[nH]3)CC[C@H]2CN1 (stereo in doubt) [Compound 2, (3S,4aS,6R,8aR)-6-fluoro-6-[2-(1H-1,2,3,4-tetrazol-5-yl)ethyl]-decahydroisoquinoline-3-carboxylic acid] |  |  | below limit of detection
